pIC50, pKi: −log10 of the molar value. ≈ marks a conversion by molar mass, not a printed value. Calls of active or inactive are those of the source. No cut-off for these calls is given here.
Legend:
[1] = target: T1, N-acetyltransferase Eis (Mycobacterium tuberculosis (strain ATCC 25618 / H37Rv), UniProt P9WFK7); assay: Inhibition of wild-type Mycobacterium tuberculosis Eis expressed in Escherichia coli BL21(DE3) cells incubated for 5 mins by Ellman's method
T1 sequence (P9WFK7 whole entry): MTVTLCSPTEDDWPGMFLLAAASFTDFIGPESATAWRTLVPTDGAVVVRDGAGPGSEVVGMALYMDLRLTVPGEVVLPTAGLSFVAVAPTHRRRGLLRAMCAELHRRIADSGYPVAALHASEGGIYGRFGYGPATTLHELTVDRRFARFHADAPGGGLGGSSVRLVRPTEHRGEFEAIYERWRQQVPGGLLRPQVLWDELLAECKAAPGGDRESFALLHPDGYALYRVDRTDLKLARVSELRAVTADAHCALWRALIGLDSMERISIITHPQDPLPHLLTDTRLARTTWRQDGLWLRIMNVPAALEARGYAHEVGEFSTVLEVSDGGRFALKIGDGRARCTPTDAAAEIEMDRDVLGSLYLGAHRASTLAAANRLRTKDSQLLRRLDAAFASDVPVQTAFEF

[2] = system: Mycobacterium tuberculosis; assay: Antibacterial activity against Mycobacterium tuberculosis H37Ra assessed as bacterial growth inhibition incubated 2 to 3 weeks by resazurin dye based assay; assay type: functional; details: time 2-3 weeks
[3] = system: Mycobacterium tuberculosis; assay: Antibacterial activity against Mycobacterium tuberculosis H37Rv assessed as MIC of kanamycin A at 19.7 uM incubated for 24 hrs followed by kanamycin A addition measured after 6 days by alamarblue dye based assay; assay type: functional; details: 168 h, time 7 day
[4] = system: Mycobacterium avium; assay: Antibacterial activity against Mycobacterium avium ATCC 25291 assessed as bacterial growth inhibition incubated for 2 to 3 weeks by resazurin dye based assay; assay type: functional; details: time 2-3 weeks
[5] = system: Mycobacterium intracellulare; assay: Antibacterial activity against Mycobacterium intracellulare ATCC 13950 assessed as bacterial growth inhibition incubated for 2 to 3 weeks by resazurin dye based assay; assay type: functional; details: time 2-3 weeks
[6] = system: Mycobacteroides abscessus; assay: Antibacterial activity against Mycobacterium abscessus ATCC 19977 assessed as bacterial growth inhibition incubated for 2 to 3 weeks by resazurin dye based assay; assay type: functional; details: time 2-3 weeks
[7] = system: Mycobacterium tuberculosis; assay: Antibacterial activity against Mycobacterium tuberculosis mc2 6230 assessed as bacterial growth inhibition incubated 2 to 3 weeks by resazurin dye based assay; assay type: functional; details: time 2-3 weeks
[8] = system: J774.1; assay: Cytotoxicity against mouse J774.1 cells upto 12.5 uM incubated for 24 hrs by resazurin dye based cell viability assay; assay type: toxicity; details: j774.1, 24 h
[9] = system: Mycobacterium tuberculosis; assay: Antibacterial activity against Mycobacterium tuberculosis mc2 6230 K204 assessed as MIC of kanamycin A at 6.25 uM incubated for 24 hrs followed by kanamycin A addition measured after 6 days by alamarblue dye based assay; assay type: functional; details: mc2 6230 K204, 168 h, time 7 day
[10] = system: J774.1; assay: Cytotoxicity against mouse J774.1 cells <=50 uM incubated for 24 hrs by resazurin dye based cell viability assay; assay type: toxicity; details: j774.1, 24 h
[11] = system: Mycobacterium tuberculosis; assay: Antibacterial activity against Mycobacterium tuberculosis H37Rv assessed as MIC of kanamycin A at 100 uM incubated for 24 hrs followed by kanamycin A addition measured after 6 days by alamarblue dye based assay; assay type: functional; details: time 7.0 day
[12] = system: HEK293; assay: Cytotoxicity against HEK293 cells upto 12.5 uM incubated for 24 hrs by resazurin dye based cell viability assay; assay type: toxicity; details: human, hek293, 24 h
[13] = system: A549; assay: Cytotoxicity against human A549 cells upto 50 uM incubated for 24 hrs by resazurin dye based cell viability assay; assay type: toxicity; details: a549, 24 h
[14] = system: HEK293; assay: Cytotoxicity against HEK293 cells <=50 uM incubated for 24 hrs by resazurin dye based cell viability assay; assay type: toxicity; details: human, hek293, 24 h
[15] = system: Mycobacterium tuberculosis; assay: Antibacterial activity against Mycobacterium tuberculosis mc2 6230 assessed as MIC of kanamycin A at 6.25 uM incubated for 24 hrs followed by kanamycin A addition measured after 6 days by alamarblue dye based assay; assay type: functional; details: mc2 6230, 168 h, time 7 day
[16] = system: A549; assay: Cytotoxicity against human A549 cells upto 12.5 uM incubated for 24 hrs by resazurin dye based cell viability assay; assay type: toxicity; details: a549, 24 h
[17] = system: Mycolicibacterium smegmatis; assay: Antibacterial activity against Mycobacterium smegmatis mc2 122 assessed as bacterial growth inhibition incubated for 2 to 3 weeks by resazurin dye based assay; assay type: functional; details: time 2-3 weeks
[18] = system: Mycobacterium parascrofulaceum; assay: Antibacterial activity against Mycobacterium parascrofulaceum ATCC BAA-614 assessed as bacterial growth inhibition incubated for 2 to 3 weeks by resazurin dye based assay; assay type: functional; details: time 2-3 weeks
[19] = system: Mycobacterium tuberculosis; assay: Antibacterial activity against Mycobacterium tuberculosis mc2 6230 assessed as bacterial growth inhibition measured after 6 days by alamarblue dye based assay; assay type: functional; details: mc2 6230, 144 h, time 6 day
[20] = system: Mycobacterium tuberculosis; assay: Antibacterial activity against Mycobacterium tuberculosis mc2 6230 K204 assessed as bacterial growth inhibition measured after 6 days by alamarblue dye based assay; assay type: functional; details: mc2 6230 K204, 144 h, time 6 day
[21] = system: Mycobacterium tuberculosis; assay: Antibacterial activity against Mycobacterium tuberculosis H37Rv assessed as bacterial growth inhibition measured after 6 days by alamarblue dye based assay; assay type: functional; details: 144 h, time 6 day
[22] = system: Mycobacterium tuberculosis; assay: Antibacterial activity against Mycobacterium tuberculosis H37Rv assessed as MIC of kanamycin A at 27.5 uM incubated for 24 hrs followed by kanamycin A addition measured after 6 days by alamarblue dye based assay; assay type: functional; details: 168 h, time 7 day
[23] = system: Mycobacterium tuberculosis; assay: Antibacterial activity against Mycobacterium tuberculosis mc2 6230 assessed as MIC of kanamycin A at 25 uM incubated for 24 hrs followed by kanamycin A addition measured after 6 days by alamarblue dye based assay; assay type: functional; details: mc2 6230, 168 h, time 7 day
[24] = system: Mycobacterium tuberculosis; assay: Antibacterial activity against Mycobacterium tuberculosis mc2 6230 K204 assessed as MIC of kanamycin A at 25 uM incubated for 24 hrs followed by kanamycin A addition measured after 6 days by alamarblue dye based assay; assay type: functional; details: time 7 day
[25] = system: Mycobacterium tuberculosis; assay: Antibacterial activity against Mycobacterium tuberculosis H37Rv assessed as MIC of kanamycin A at 5 uM incubated for 24 hrs followed by kanamycin A addition measured after 6 days by alamarblue dye based assay; assay type: functional; details: 168 h, time 7 day
[26] = system: Mycobacterium tuberculosis; assay: Antibacterial activity against Mycobacterium tuberculosis H37Rv assessed as MIC of kanamycin A at 55.8 uM incubated for 24 hrs followed by kanamycin A addition measured after 6 days by alamarblue dye based assay; assay type: functional; details: 168 h, time 7 day
[27] = system: Mycobacterium tuberculosis; assay: Antibacterial activity against Mycobacterium tuberculosis K204 assessed as MIC of kanamycin A at 55.8 uM incubated for 24 hrs followed by kanamycin A addition measured after 6 days by alamarblue dye based assay; assay type: functional; details: K204, 168 h, time 7 day
[28] = target: T1, N-acetyltransferase Eis; assay: Binding affinity to wild-type Mycobacterium tuberculosis Eis expressed in Escherichia coli BL21(DE3) cells assessed as inhibition constant incubated for 5 mins by Ellman's method based Michaelis-Menten analysis

`Fc1ccc(COc2ccc(CNCc3ccncc3)cc2)cc1` was tested. Which pIC50 [1] did it give?
Its pIC50 is ~5.80.

And the MIC [2]?
The MIC was 7.8 µM (≈ 2.51 µg/mL).

What about the MIC [3] of the same compound?
Its MIC is ≤ 1.25 µg/mL.

And the MIC [4]?
The MIC was > 62.5 µM.

And the MIC [5]?
Its MIC is 15.6 µM (≈ 5.03 µg/mL).

What about the MIC [6] of the same compound?
The MIC was > 62.5 µM.

And the MIC [7]?
Its MIC is 50 µM (≈ 16.1 µg/mL).

How did the Activity [8] turn out when `Clc1ccc(COc2ccc(CNCc3ccccc3)cc2)cc1` was run?
The Activity was “Non-Toxic”.

What about the pIC50 [1] of the same compound?
Its pIC50 is < 3.70.

And the MIC [2]?
Its MIC is 3.9 µM (≈ 1.32 µg/mL).

What about the MIC [9] of the same compound?
The MIC was < 1.25 µM.

What about the Activity [10] of the same compound?
The Activity was “Non-Toxic”.

What about the Activity [11] of the same compound?
The Activity was “Active”.

And the MIC [4]?
Its MIC is 62.5 µM (≈ 21.1 µg/mL).

What about the Activity [12] of the same compound?
The Activity was “Non-Toxic”.

What about the Activity [13] of the same compound?
The Activity was “Non-Toxic”.

What about the MIC [6] of the same compound?
Its MIC is 31.3 µM (≈ 10.6 µg/mL).

And the Activity [14]?
Its Activity is “Non-Toxic”.

What about the MIC [15] of the same compound?
The MIC was < 1.25 µM.

What about the MIC [7] of the same compound?
Its MIC is 12.5 µM (≈ 4.22 µg/mL).

What about the Activity [16] of the same compound?
The Activity was “Non-Toxic”.

And the MIC [17]?
Its MIC is 15.6 µM (≈ 5.27 µg/mL).

And the MIC [18]?
Its MIC is 15.6 µM (≈ 5.27 µg/mL).

What does the source list for `NC[C@H]1O[C@H](O[C@H]2[C@H](O)[C@@H](O[C@H]3O[C@H](CO)[C@@H](O)[C@H](N)[C@H]3O)[C@H](N)C[C@@H]2N)[C@H](O)[C@@H](O)[C@@H]1O` [KANAMYCIN]?
MIC [19]: < 1.25 µM; MIC [20]: 320 µM (≈ 155 µg/mL); MIC [21]: 1.25 µg/mL (≈ 2.58 µM); MIC [7]: < 1.25 µM

How did the pIC50 [1] turn out when `Clc1ccc(COc2ccc(CNCc3cccnc3)cc2)cc1` was run?
The pIC50 was 5.54.

What about the MIC [2] of the same compound?
The MIC was 31.3 µM (≈ 10.6 µg/mL).

And the MIC [22]?
Its MIC is ≤ 1.25 µg/mL.

What about the MIC [4] of the same compound?
The MIC was > 62.5 µM.

And the MIC [5]?
The MIC was 15.6 µM (≈ 5.29 µg/mL).

And the MIC [23]?
The MIC was < 1.25 µM.

What about the MIC ([24]; Mycobacterium tuberculosis, mc2 6230 K204, 168 h, read-out: MIC) of the same compound?
The MIC was ≤ 1.25 µM.

And the MIC [6]?
Its MIC is > 62.5 µM.

And the MIC [7]?
Its MIC is 50 µM (≈ 16.9 µg/mL).

How did the pIC50 [1] turn out when `Clc1cccc(COc2ccccc2CNCc2ccncc2)c1` was run?
Its pIC50 is 5.05.

And the MIC [2]?
The MIC was 62.5 µM (≈ 21.2 µg/mL).

And the MIC [4]?
The MIC was > 62.5 µM.

And the MIC [5]?
The MIC was > 62.5 µM.

And the MIC [6]?
Its MIC is > 62.5 µM.

What about the MIC [25] of the same compound?
The MIC was 2.5 µg/mL.

And the MIC [7]?
The MIC was 100 µM (≈ 33.9 µg/mL).

And the MIC [17]?
Its MIC is > 62.5 µM.

What about the MIC [18] of the same compound?
Its MIC is 31.3 µM (≈ 10.6 µg/mL).

What does the source list for `Clc1ccc(COc2ccccc2CNCc2ccncc2)cc1`?
pIC50 [1]: 5.85; MIC [26]: < 1.25 µg/mL; MIC [2]: 31.3 µM (≈ 10.6 µg/mL); MIC [27]: > 10 µg/mL; pKi [28]: 5.98; MIC [4]: > 62.5 µM; MIC [5]: 31.3 µM (≈ 10.6 µg/mL); MIC [23]: < 1.25 µM; MIC [24]: >10 µM; MIC [6]: 31.3 µM (≈ 10.6 µg/mL); MIC [7]: 50 µM (≈ 16.9 µg/mL); MIC [18]: > 62.5 µM
